We go through 5 compounds from patent US20180213795A1, “PLANT DISEASE CONTROL COMPOSITION AND PLANT DISEASE CONTROL METHOD” (SUMITOMO CHEMICAL COMPANY, LIMITED, priority 2015, published 2018).

What all share (format): in vivo
Assay [1] concerns damping-off fungus (Rhizoctonia solani). Description: Test Example 23: soybean seed treatment, damping-off control in pots. The settings on record: soybean seeds, 20 days after.
The test system of assay [2] is damping-off fungus (Pythium spp.). Description: Test Example 22: soybean seed treatment, damping-off control in pots. The settings on record: soybean seeds, 20 days after. Here is the method:
If the effect by the combination of two active ingredients is greater than that of the estimated value E, which is calculated by the Colby's equation as follows, the effect is regarded as synergistic. E=X+Y-X·Y/100 wherein, E=Control value when using the mixture of the active ingredients A and B at the concentrations m and n (amount of the active ingredient), respectively. X=Control value when using the active ingredient A at the concentration m (amount of the active ingredient). Y=Control value when using the active ingredient B at the concentration n (amount of the active ingredient). […] Corporation) and metalaxyl flowable formulation (30.14% flowable formulation, trade name: […] Cultivation was carried out in a greenhouse under irrigation. Also, similar procedures were conducted using untreated soybean seeds, instead of the treated soybean seeds, as described above for the treated compartment (“untreated compartment”). […] Disease incidence (%)=100×(number of diseased plant/total number of seeded seeds): […]

For assay [3] the test system is unchanged. Description: Test Example 21: corn seed treatment, damping-off control in pots. The following applies: corn seeds, 20 days after. The protocol: In a rotary seed treatment machine (trade name: HEGE11, manufactured by WINTERSTEIGER), corn seeds (variety: yellow dent corn) were treated by smearing treatment using a flowable formulation of the present bacterial strain as obtained in Formulation Example 13 and ethaboxam flowable formulation (34.6% flowable formulation, Valent U.S.A. Corporation), so that the […] retain the present bacterial strain and/or the compound in the amount shown in Table 6.
Cultivation was carried out in a greenhouse under irrigation. Also, similar procedures were conducted using untreated corn seeds, instead of the treated corn seeds, as described above for the treated compartment (“untreated compartment”). The plants were investigated 20 days after for the number of diseased plants, and the disease incidence was calculated by the following “Equation 1”. The control value of the treated compartment was calculated by the following equation “Equation 2”, based on the disease incidences of the treated compartment and the untreated compartment.
Disease incidence (%)=100×(number of diseased plant/total number of seeded seeds): Equation 1
Control value (%)=100×[(disease incidence in […] in treated compartment)/disease incidence in untreated compartment]: Equation 2
If the effect by the combination of two active ingredients is greater than that of the estimated value E, which is calculated by the Colby's equation as follows, the effect is regarded as synergistic.
wherein, E=Control value when using the mixture of the active ingredients A and B at the concentrations m and n (amount of the active ingredient), respectively. X=Control value when using the active ingredient A at the concentration m (amount of the active ingredient). Y=Control value when using the active ingredient B at the concentration n (amount of the active ingredient).

For `COP(=S)(OC)Oc1c(Cl)cc(C)cc1Cl` [Tolclofos-Methyl, tolclofos-methyl], the “Control Value” in assay [1] (tolclofos-methyl 0.01 g/kg seeds) was 11.4%; in assay [1] (tolclofos-methyl 0.05 g/kg seeds), 28.6%; in assay [1] (tolclofos-methyl 0.25 g/kg seeds), 42.8%.

Consider `N#Cc1c[nH]cc1-c1cccc2c1OC(F)(F)O2` [Fludioxonil, fludioxonil], for which the “Control Value” in assay [1] (fludioxonil 0.004 g/kg seeds) is 25.7%; in assay [1] (fludioxonil 0.02 g/kg seeds) it was 37.1%; in assay [1] (fludioxonil 0.1 g/kg seeds), 48.6%.

Take `CCNc1nc(CC)c(C(=O)NC(C#N)c2cccs2)s1` (stereo not drawn) [Ethaboxam, ethaboxam]: the “Control Value” in assay [2] (ethaboxam 0.075 g/kg seeds) stood at 46.9%; in assay [2] (ethaboxam 0.15 g/kg seeds) it was 56.2%; in assay [2] (ethaboxam 0.3 g/kg seeds), 62.5%; in assay [3] (ethaboxam 0.00625 g/kg seeds), 19.4%; in assay [3] (ethaboxam 0.025 g/kg seeds), 32.3%; in assay [3] (ethaboxam 0.1 g/kg seeds) it was 48.4%.

Take `COCC(=O)N(c1c(C)cccc1C)C(C)C(=O)OC` (stereo not drawn) [Metalaxyl, metalaxyl]: the “Control Value” in assay [2] (metalaxyl 0.01 g/kg seeds) was 40.6%; in assay [2] (metalaxyl 0.04 g/kg seeds), 50.0%; in assay [2] (metalaxyl 0.16 g/kg seeds), 59.4%.

With `CC1CC(C)(C)c2cccc(NC(=O)c3cn(C)nc3C(F)F)c21` (racemic) [The Carboxamide Compound (1)], the “Control Value” in assay [1] (carboxamide compound (1) 0.0004 g/kg seeds) is given as 40.0%; in assay [1] (carboxamide compound (1) 0.002 g/kg seeds), 54.3%; in assay [1] (carboxamide compound (1) 0.01 g/kg seeds) it was 65.7%.
